The test system of one assay is KPC-2. In words: Bottom-up mass spectrometry sequence coverage of KPC-2 in K. pneumoniae cultures induced with ertapenem. It counts as cell-based, Klebsiella pneumoniae. The following applies: for KPC-2 Sequence Coverage: induced with 0.5 mM ertapenem. As for the experimental part:
(§1) In some embodiments, a sample of the microbial culture or biological sample is exposed to conditions that induce antimicrobial resistance in the microorganisms prior to testing. In other embodiments, a sample of the microbial culture or biological sample is tested without intentionally inducing antimicrobial resistance in the microorganisms. In certain embodiments, many resistance mechanisms may not have to be induced in order to detect the target proteins of interest. For example, we have observed that the production of PBP2a from MRSA samples varies in its baseline expression without induction. In examining expression of carbapenem-resistant Enterobacteriaceae (CRE)-related resistances, several strains of Klebsiella pneumoniae that contained different combinations of the resistance marker beta-lactamase were tested to determine the effect on detection for induced and non-induced samples. Table 1 lists various resistant and susceptible strains of K. pneumoniae which were tested with 0.5 mM of ertapenem as an inducer. In these experiments, bottom-up mass spectrometry was used to measure sequence coverage of two representative beta-lactamases, KPC-2 and CTX-M15. The percent sequence coverage observed is an approximate measure of the amount of a given protein present in any given extract. The higher the percent sequence coverage observed, the higher the level of that given protein in an extract.

A further assay has as its system CTX-M15. As to the kind of experiment: Bottom-up mass spectrometry sequence coverage of CTX-M15 in K. pneumoniae cultures induced with ertapenem. It counts as cell-based, Klebsiella pneumoniae. The note with it: for CTX-M15 Sequence Coverage: induced with 0.5 mM ertapenem. As for the experimental part:
as §1

[1] abbreviates: variety of K. pneumoniae strains, 0.5 mM ertapenem as inducer.

For the compound `C[C@@H](O)[C@H]1C(=O)N2C(C(=O)O)=C(S[C@@H]3CN[C@H](C(=O)Nc4cccc(C(=O)O)c4)C3)[C@H](C)[C@H]12` [ertapenem], the “KPC-2 Sequence Coverage” value in the assay on KPC-2 (strain 13883 (Susceptible)) is “not detected”; in the assay on KPC-2 (strain BAA-1903 (Resistant)) it was 73% ± 0%; in the assay with KPC-2 (strain BAA-1905 (Resistant)), 85% ± 5%; in the assay on KPC-2 (strain BAA-2473 (Resistant)), “not detected”; with KPC-2 (strain BAA-2578 (Resistant)), “not detected”. In the assay with KPC-2 (setting [1]), the “percent sequence coverage of KPC-2, induced versus non-induced” value was “the same regardless of induction”. Besides, the “CTX-M15 Sequence Coverage” value in the assay with CTX-M15 (strain 13883 (Susceptible)) is given as “not detected”; in the assay with CTX-M15 (strain BAA-1903 (Resistant)) it was “not detected”; with CTX-M15 (strain BAA-1905 (Resistant)), “not detected”; in the assay on CTX-M15 (strain BAA-2473 (Resistant)), 70% ± 0%; in the assay on CTX-M15 (strain BAA-2578 (Resistant)), 60% ± 2%. Also, the “percent sequence coverage of CTX-M15, induced versus non-induced” value in the assay with CTX-M15 (setting [1]) is “the same regardless of induction”.
